# Data as given in patent US20130102499A1, “METHOD FOR DETERMINATION OF ACTIVITY OF MITOCHONDRIAL DNA POLYMERASE OF FALCIPARUM MALARIA, AND METHOD FOR SCREENING FOR ANTI-MALARIA COMPOUND” (OCHANOMIZU UNIVERSITY, priority 2010, published 2013).
# Key:
# [1] = test system: PFF1225c (C1 fragment), mitochondrial DNA polymerase; assay: DNA polymerase activity measurement of PFF1225c (C1 fragment), sensitivity to inhibitors; format: biochemical, Plasmodium falciparum; settings: for inhibition action to the DNA polymerase activity: FIG. 12a, FIG. 13a
# Procedure: When a ^3H amount taken in a DNA chain is measured with a liquid scintillation counter, the pigment of an iron ion causes quenching and an accurate measurement thus cannot be attained. Quenching is classified into three types such as chemical quenching, oxygen quenching, and coloration quenching, and calculation efficiency of a liquid scintillation counter decreases. The case of ^3H being a soft β ray particularly becomes a problem, and coloration quenching becomes a problem in the case of an iron ion. Thus, gallic acid that forms a complex with iron was used and gallic acid iron that is a purple complex was formed. […] The protocol in the case of adding an iron ion is shown below.
# In order to prevent oxidation of iron, the reaction solution was exposed to a nitrogen gas for 30 minutes to be degassed.
# The reaction solution obtained by adding 50 mM Tris-HCl (pH 7.5), 1 mM dTTP, 40 nM PolydA-dT12, and 10 mM FeCl2 and adjusted to be the total amount of 20 μl with degassed distilled water (DW). […] After the incubation, an iron ion was chelated by adding 10 μl of 100 mM EDTA to terminate the reaction. PicoGreen™ (Molecular Probes), which specifically binds to double-stranded DNA, was used in order to quantitatively determine an amount of DNA synthesized by the DNA polymerase.
# [2] = test system: DNA polymerase γ-like enzyme; settings: Non-patent Document 5; cited from earlier work
# [3] = target: T1, human mitochondrial DNA polymerase γ (Homo sapiens, UniProt P54098); assay: DNA polymerase activity, human mitochondrial DNA polymerase γ; format: biochemical; settings: FIG. 12c
# T1 sequence (P54098 1-1239): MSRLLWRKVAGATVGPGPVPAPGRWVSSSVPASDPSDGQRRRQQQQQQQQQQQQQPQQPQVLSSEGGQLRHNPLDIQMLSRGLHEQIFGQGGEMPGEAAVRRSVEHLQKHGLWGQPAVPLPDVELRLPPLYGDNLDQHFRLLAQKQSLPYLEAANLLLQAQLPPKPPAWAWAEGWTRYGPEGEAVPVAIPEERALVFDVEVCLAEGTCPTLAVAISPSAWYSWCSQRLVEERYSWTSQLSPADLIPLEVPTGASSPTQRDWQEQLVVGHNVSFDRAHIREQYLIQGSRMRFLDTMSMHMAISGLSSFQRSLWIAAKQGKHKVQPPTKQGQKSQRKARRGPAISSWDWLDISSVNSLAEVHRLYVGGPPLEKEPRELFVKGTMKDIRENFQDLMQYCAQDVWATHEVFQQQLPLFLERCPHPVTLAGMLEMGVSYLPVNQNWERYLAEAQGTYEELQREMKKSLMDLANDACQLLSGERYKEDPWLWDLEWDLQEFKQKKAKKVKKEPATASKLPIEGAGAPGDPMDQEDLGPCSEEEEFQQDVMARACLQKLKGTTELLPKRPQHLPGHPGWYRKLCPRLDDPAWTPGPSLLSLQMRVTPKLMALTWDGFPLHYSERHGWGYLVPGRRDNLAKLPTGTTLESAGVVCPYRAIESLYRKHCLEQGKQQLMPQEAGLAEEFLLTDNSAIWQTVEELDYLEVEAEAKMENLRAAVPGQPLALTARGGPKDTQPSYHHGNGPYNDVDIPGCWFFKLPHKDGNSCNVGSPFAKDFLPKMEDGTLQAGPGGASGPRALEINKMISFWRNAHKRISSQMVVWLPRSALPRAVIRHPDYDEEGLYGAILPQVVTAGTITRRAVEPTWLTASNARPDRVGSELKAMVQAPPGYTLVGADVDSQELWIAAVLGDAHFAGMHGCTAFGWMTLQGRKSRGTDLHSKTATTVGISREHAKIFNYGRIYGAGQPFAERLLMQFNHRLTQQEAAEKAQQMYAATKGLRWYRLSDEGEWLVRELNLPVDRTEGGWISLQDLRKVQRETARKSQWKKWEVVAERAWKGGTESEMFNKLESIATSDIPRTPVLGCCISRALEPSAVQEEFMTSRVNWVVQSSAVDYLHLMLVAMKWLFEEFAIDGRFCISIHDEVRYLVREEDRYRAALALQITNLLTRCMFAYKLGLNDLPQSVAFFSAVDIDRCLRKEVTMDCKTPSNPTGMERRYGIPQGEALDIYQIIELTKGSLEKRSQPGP
# Procedure: 0.1 μg of a C1 fragment was added per 10 μl. The mixed reaction solution was incubated at 37° C. for 30 minutes, then adsorbed to filter paper, dried, and washed with 5% Na2HPO4 4 times (for 10 minutes for each washing), thereafter washing twice with distilled water (DW) (for 5 minutes for each washing), and finally shaken with 100% ethanol for 5 minutes. The filter paper was then dried and the dried filter paper was contained in a vial container charged with 4 ml of a toluene cocktail, and an intake amount of ^3H was measured with a liquid scintillation counter.
# PpPolA = settings: FIG. 12b
# Procedure: A reaction solution was obtained by adding 50 mM Tris-HCl, 0.5 mM dATP, dGTP, dCTP, 5 μM dTTP, activated DNA (0.5 μg/ml), 0.8 μM [^3H]dTTP (Moravek Co.: (MT-781) Thymidine 5′-triphosphate, tetrasodium salt, [methyl ^3H]), and an enzyme solution was further added thereto, a metallic ion, an inhibitor, etc. having respective concentrations (the total amount of 10 μl). 0.1 μg of a C1 fragment was added per 10 μl. The mixed reaction solution was incubated at 37° C. for 30 minutes, then adsorbed to filter paper, dried, and washed with 5% Na2HPO4 4 times (for 10 minutes for each washing), thereafter washing twice with distilled water (DW) (for 5 minutes for each washing), and finally shaken with 100% ethanol for 5 minutes. The filter paper was then dried and the dried filter paper was contained in a vial container charged with 4 ml of a toluene cocktail, and an intake amount of ^3H was measured with a liquid scintillation counter.
# mouse DNA polymerase α = target: T2, mouse DNA polymerase α (Mus musculus, UniProt P33609); settings: already reported; cited from earlier work
# T2 sequence (P33609 1-1465): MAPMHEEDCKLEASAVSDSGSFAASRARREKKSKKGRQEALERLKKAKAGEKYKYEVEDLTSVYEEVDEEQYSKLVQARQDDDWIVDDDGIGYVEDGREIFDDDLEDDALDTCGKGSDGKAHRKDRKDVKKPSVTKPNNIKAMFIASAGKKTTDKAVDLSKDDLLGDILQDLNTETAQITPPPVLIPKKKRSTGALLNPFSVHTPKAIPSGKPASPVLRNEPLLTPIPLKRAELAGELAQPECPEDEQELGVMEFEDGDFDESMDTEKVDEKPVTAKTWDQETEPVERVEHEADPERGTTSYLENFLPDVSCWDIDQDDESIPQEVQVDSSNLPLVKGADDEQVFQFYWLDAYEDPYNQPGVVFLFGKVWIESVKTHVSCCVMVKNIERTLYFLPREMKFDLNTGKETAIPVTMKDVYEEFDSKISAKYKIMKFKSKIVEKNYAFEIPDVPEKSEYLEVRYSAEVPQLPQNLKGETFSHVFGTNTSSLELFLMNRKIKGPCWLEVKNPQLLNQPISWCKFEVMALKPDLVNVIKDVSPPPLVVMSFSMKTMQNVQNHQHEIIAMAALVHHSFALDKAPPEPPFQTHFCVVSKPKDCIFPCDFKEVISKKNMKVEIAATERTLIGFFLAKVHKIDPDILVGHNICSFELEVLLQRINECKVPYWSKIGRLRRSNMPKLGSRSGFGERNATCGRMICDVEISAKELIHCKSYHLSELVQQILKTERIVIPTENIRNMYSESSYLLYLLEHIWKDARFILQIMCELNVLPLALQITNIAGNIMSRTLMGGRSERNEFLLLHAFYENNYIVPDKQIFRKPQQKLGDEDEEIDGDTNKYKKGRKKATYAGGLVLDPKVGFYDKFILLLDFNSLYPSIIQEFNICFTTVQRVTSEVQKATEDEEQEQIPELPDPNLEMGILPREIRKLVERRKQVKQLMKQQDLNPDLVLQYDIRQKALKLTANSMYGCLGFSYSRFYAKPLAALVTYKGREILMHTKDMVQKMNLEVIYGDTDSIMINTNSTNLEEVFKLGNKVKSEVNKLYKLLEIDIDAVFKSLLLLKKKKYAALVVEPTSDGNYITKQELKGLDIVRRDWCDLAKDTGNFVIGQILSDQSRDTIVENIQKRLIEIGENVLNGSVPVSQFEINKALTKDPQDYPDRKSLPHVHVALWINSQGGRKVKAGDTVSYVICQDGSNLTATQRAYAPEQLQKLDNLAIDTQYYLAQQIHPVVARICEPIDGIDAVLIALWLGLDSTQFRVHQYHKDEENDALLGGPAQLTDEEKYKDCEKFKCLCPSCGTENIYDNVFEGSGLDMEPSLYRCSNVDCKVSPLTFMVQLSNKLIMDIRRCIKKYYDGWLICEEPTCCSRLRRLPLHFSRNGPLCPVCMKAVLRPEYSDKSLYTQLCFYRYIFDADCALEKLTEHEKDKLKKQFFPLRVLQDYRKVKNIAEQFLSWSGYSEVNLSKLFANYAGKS
# DNA polymerase γ [4] = target: T3, DNA polymerase γ (Mus musculus, UniProt P54099); settings: already reported; cited from earlier work
# T3 sequence (P54099 1-1218): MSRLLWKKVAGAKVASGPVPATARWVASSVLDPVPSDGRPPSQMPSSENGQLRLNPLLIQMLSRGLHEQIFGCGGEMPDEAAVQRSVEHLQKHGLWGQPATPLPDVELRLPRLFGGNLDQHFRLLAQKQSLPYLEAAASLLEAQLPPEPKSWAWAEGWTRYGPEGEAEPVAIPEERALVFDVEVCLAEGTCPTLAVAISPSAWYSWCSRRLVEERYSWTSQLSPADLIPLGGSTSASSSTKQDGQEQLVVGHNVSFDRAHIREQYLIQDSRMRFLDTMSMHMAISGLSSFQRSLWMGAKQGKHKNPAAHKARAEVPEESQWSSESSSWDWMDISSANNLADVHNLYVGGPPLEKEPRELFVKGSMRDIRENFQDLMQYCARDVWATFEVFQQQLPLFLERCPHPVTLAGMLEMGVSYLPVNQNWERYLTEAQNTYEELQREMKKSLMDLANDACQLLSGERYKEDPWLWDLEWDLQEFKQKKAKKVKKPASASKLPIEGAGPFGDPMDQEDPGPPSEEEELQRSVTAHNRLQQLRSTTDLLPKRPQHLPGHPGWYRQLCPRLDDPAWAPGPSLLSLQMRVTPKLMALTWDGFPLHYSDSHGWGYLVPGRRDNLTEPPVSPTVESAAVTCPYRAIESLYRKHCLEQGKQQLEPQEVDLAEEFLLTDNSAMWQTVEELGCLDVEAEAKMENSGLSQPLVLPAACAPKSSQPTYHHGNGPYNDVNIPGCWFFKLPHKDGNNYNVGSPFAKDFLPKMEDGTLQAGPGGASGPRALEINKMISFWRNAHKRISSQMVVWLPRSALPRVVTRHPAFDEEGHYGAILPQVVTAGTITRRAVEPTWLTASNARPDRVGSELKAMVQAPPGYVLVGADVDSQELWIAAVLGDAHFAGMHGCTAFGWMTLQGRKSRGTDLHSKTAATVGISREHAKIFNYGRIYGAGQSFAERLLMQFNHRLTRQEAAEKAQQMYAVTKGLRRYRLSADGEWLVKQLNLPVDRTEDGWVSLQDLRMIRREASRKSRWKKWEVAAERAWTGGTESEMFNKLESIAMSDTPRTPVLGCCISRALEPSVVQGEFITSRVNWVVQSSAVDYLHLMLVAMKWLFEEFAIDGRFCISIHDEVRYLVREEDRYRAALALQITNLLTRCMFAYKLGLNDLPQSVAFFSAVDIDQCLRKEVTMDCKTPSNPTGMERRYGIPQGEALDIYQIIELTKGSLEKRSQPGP
# [5] = test system: apicoplast DNA polymerase (POMUPfprex); settings: reported; cited from earlier work
# DNA polymerase γ [6] = target: T4, DNA polymerase γ (Homo sapiens, UniProt P54098); settings: at a concentration from 50 to 100 mM; reported; cited from earlier work
# T4 sequence (P54098 1-1239): T1 sequence (P54098 1-1239)
# various DNA polymerases = settings: reported; binds non-specifically; cited from earlier work
structure (smiles),measurement,setting,value
"CCN1C(=O)C=CC1=O [NEM, N-ethylmaleimide]",DNA polymerase activity on addition of inhibitor,"[1]; in the presence at a high concentration, FIG. 11c",the activity scarcely decreased
same,sensitivity or resistance of the enzyme to inhibitor,[2],sensitivity
Nc1ncnc2c1ncn2CCOCP(=O)(O)OP(=O)(O)OP(=O)(O)O [PMEApp],sensitivity or resistance of the enzyme to inhibitor,[2],resistance
C[C@@]1(CO)[C@H](O)CC[C@@]2(C)[C@H]1CC[C@H]1C[C@@H]3C[C@@]12CC[C@]3(O)CO [aphidicolin],DNA polymerase activity on addition of inhibitor,"[1]; added at a concentration from 10 to 100 μM, FIG. 11b",the activity scarcely decreased
same,sensitivity or resistance of the enzyme to inhibitor,[2],resistance
CCN(CC)CCCC(C)Nc1ccnc2cc(Cl)ccc12 (stereo not drawn) [chloroquine],inhibition action to the DNA polymerase activity,[1],inhibited the activity
same,inhibition action to the DNA polymerase activity,[3],an inhibition effect was not shown
same,inhibition action to the DNA polymerase activity,PpPolA,an inhibition effect was not shown
same,inhibition of DNA polymerase activity,mouse DNA polymerase α,does not inhibit
same,inhibition of DNA polymerase activity,DNA polymerase γ [4],does not inhibit
same,inhibition of DNA polymerase activity,[5],inhibitors
Cc1cn([C@H]2CC[C@@H](COP(=O)(O)OP(=O)(O)OP(=O)(O)O)O2)c(=O)[nH]c1=O [ddTTP],inhibition effect on DNA polymerase activity,"[1]; along with increasing concentration, FIG. 11d",a weak inhibition effect was shown
same,remaining DNA polymerase activity,"[1]; concentration increased to 400 mM, FIG. 11d",50%
same,inhibition of DNA polymerase activity,DNA polymerase γ [6],mostly inhibited
same,sensitivity or resistance of the enzyme to inhibitor,[2],resistance
Cc1ccc(C(=O)Nc2ccc(S(=O)(=O)O)c3cc(S(=O)(=O)O)cc(S(=O)(=O)O)c23)cc1NC(=O)c1cccc(NC(=O)Nc2cccc(C(=O)Nc3cc(C(=O)Nc4ccc(S(=O)(=O)O)c5cc(S(=O)(=O)O)cc(S(=O)(=O)O)c45)ccc3C)c2)c1 [suramin],inhibition action to the DNA polymerase activity,[1],inhibited the activity
same,inhibition of DNA polymerase activity,[5],inhibitors
same,inhibition of DNA polymerase activity,various DNA polymerases,inhibits the activities
